From patent US7378397B2 (The Provost, Fellows and Scholars of the College of the …, priority 2000, dated 2008)
In brackets after ≈: the same amount, converted by molar mass. Where a SMILES comes first, the peptide text is derived from it. [ ]: non-standard residue; d: D form. pGlu = O=C1CC[C@@H](C(=O)O)N1

What was measured:
[1] = physchem
[2] = test system: Male Wistar rats; test: behavioural effects (activity score, WDS, locomotion) after i.p. administration; assay type: in vivo, rat
Protocol: Methods: Behavioural studies were conducted using experimentally naïve Male Wistar rats (200-250 g) maintained in a temperature controlled (21° C.), artificially-lighted (12 hr light cycle) room with free access to food and water. Behavioural effects of TRH±TRH-DE inhibitor following intraperitoneal (i.p.) administration: On the day of the experiment, animals were singly housed in perspex cages (30×20×20 cm) and allowed to acclimatize for 20 min. After this period, two baseline measurements of behaviour were made at 10 and 5 min prior to administration of drugs. […] Animals were then observed by two independent observers who were blind to treatment, every 5 min for 30 sec. Blocks of 5 animals were treated at a time, 1 per drug group. Blocks were repeated 5 times. The occurrence of individual behaviours were noted using a behavioural check list, which included grooming, locomotion, rearing, chewing, sniffing, head weave, tail elevation, and/or straub tail and WDS behaviours. These behaviours were summed to yield an overall activity count. Animals were videotaped for separate subsequent analysis of WDS. All WDS behaviours occurring during each 5 min interval after drug administration were counted. The statistical significance of differences between behavioural effects of treatments was determined using the Student's t-test or ANOVA, followed by a post-ANOVA test, as indicated. Radioligand binding data were analysed using non-linear curve fitting software (Prism, Graph Pad Software Inc.). IC50 values calculated from competition experiments were converted to Ki values using the Cheng-Prusoff (41) equation Ki=IC50/(1+L/Kd), where L=ligand concentration and Kd=the apparent dissociation constant for [^3[…].

[3] = target: T1, TRH-DE (Sus scrofa, UniProt A0A287AP33); test: continuous coupled fluorometric TRH-DE assay (TRHAMC substrate, DPP-IV coupling enzyme); assay type: biochemical, porcine; conditions: for Ki: non-linear regression, five TRHAMC concentrations and at least three peptide concentrations, mean±S.D. (n=3)
T1 construct: The inventor purified TRH-DE from porcine brain according to purification procedures previously published by Dr. K. Bauer; from tissue; host or cells: porcine brain (TRH-DE); bovine kidney (DPP-IV, gift from Dr. C. H. Williams)
T1 sequence (A0A287AP33 1-1066): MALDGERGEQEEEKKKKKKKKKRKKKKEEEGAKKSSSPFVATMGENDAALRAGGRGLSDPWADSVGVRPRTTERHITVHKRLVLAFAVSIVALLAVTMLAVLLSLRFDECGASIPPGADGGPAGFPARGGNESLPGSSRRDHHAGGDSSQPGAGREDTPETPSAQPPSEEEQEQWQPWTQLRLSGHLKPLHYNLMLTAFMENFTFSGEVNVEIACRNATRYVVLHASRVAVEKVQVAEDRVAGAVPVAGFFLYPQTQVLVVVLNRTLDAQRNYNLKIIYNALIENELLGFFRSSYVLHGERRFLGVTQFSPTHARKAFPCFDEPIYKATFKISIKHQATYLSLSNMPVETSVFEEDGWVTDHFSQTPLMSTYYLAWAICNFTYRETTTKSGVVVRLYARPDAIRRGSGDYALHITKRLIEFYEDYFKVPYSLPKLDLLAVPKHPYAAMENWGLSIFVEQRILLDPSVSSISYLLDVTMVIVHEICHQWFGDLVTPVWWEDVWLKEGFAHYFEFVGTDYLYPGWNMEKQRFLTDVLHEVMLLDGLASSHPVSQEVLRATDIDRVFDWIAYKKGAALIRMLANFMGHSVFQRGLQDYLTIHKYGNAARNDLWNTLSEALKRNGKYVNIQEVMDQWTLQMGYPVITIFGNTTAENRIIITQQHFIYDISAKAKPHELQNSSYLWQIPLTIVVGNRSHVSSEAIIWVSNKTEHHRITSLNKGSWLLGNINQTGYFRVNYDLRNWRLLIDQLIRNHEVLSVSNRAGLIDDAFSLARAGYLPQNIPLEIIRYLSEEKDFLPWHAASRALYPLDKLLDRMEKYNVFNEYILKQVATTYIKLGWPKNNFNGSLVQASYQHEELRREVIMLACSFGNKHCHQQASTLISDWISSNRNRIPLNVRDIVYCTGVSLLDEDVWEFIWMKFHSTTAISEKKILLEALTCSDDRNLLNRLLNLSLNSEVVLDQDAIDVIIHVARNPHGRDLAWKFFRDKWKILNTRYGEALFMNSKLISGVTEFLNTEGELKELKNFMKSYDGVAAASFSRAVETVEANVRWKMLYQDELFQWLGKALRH
Protocol: The inventor purified TRH-DE from porcine brain according to purification procedures previously published by Dr. K. Bauer, (Max-Planck-Institut, Hannover, Germany) (1). TRH-DE was purified almost 20,000 fold. […] Dipeptidyl peptidase IV (DPP-IV) (EC 3.4.14.5), purified from bovine kidney (7.7 mg ml^−1, specific activity of 17.5 U mg^−1 with Gly-ProAMC as substrate), was obtained as a gilt from Dr. C. H. Williams (Queen's University Belfast, U.K). (DPP-IV was used as the coupling enzyme used in the fluorometric assays).
One unit (U) of enzyme activity was defined as that amount catalysing the formation of one μmol of product in one minute under the standard conditions employed. All incubations in the assays described below were carried out in 20 mM potassium phosphate buffer, pH 7.5, at 37° C.
Kinetic analysis of peptides that are not hydrolysed by TRH-DE. A recently-developed continuous coupled fluorometric assay (23) was used to investigate the ability of those library peptides that were not hydrolysed by TRH-DE to inhibit TRHAMC degradation by TRH-DE. In this assay, TRHAMC is the substrate and dipeptidyl peptidase IV (DPP-IV) (EC 3.4.14.5) is the coupling enzyme. The reaction sequence is:
The reaction was monitored continuously by measuring the increase in AMC fluorescence. A linear progress curve with no discernible lag period was observed when the reaction was monitored over a period of 10 minutes. Nevertheless, data sampling was not commenced until 100 s from the start of the reaction to ensure measurements were taken after a steady state had been reached (see Ref. 23).
In a preliminary experiment, the peptides were screened for their ability to inhibit TRH-DE activity. The initial rate of TRHAMC hydrolysis by TRH-DE was measured by incubating 5 μM TRHAMC with 1.23 μg DPP-IV and 0.32 μg TRH-DE, both in the absence and presence of each library peptide (1 mM final concentration) under standard assay conditions (23). In each case the percentage inhibition (i%) was calculated using the equation i%=100(1-vi/vo), where vi and vo are the initial velocities in the presence and absence of peptide, respectively.
Since these peptides were poor inhibitors they were not examined further. The Ki values for the remainder of the peptides were determined by measuring their effects on TRHAMC degradation by TRH-DE using the continuous assay. Data were collected in duplicate at five different substrate concentrations and at least three different concentrations of each peptide.
Reversibility and time dependence of the inhibition produced by Glp-Gln-ProNH2, Glp-Asn-ProNH2 and Glp-Asn-ProAMC were examined by initially preincubating TRH-DE with each peptide at 37° C. for various periods up to 75 min. To investigate time dependence, the enzyme-peptide solution was subsequently added to the reaction mixture containing TRHAMC, DPP-IV, buffer and peptide, and TRH-DE activity was measured using the continuous assay. The final concentration of Glp-Gln-ProNH2, Glp-Asn-ProNH2 and Glp-Asn-ProAMC used was 400, 160 and 1 μM, respectively. […] TRH-DE activity was not affected by pre-incubation at 37° C.
Fluorescence measurements were made using a Perkin Elmer LS 50B Luminescence Spectrometer fitted with a thernostated cell holder. Wavelengths for excitation and emission were set at 370 nm and 440 nm, respectively, with slit widths of 10 nm and 5 nm, respectively.

solubility [1]: 1000 µg/mL (≈ 2950 µM)
mode of inhibition of TRH-DE ([3]; continuous assay, Lineweaver-Burk plot): simple competitive inhibitors
Ki [3]: 17.5 µM
Ki ([3]; listed as Glp-Asn-Pro-NH2): 17.5 µM
inhibition at 1000 µM ([3]; peptide 1 mM, 5 μM TRHAMC substrate): 97%
reversibility and time dependence of inhibition ([3]; preincubation with TRH-DE up to 75 min at 37° C., Glp-Gln-ProNH2 400, Glp-Asn-ProNH2 160, Glp-Asn-ProAMC 1 μM): fully reversible and not time-dependent
SMILES: NC(=O)C[C@H](NC(=O)[C@@H]1CCC(=O)N1)C(=O)N1CCC[C@H]1C(N)=O [Glp-Asn-ProNH2, pyroglutamyl-asparaginyl-prolineamide] ([pGlu]-Asn-Pro-NH2)
increase in locomotion ([2]; i.p. administration, 10 mg/kg): not detected
rat activity scores compared with saline ([2]; i.p., 10 mg/kg each, 40 min post injection): significantly increased activity counts
